Data: PubChem BioAssay AID2060889 (Molecular Pharmacology Branch, DTP, NCI, 2025)

Test system: LG0567-F671-PDC complex spheroids viability
Assay: Anticancer human tumor LG0567-F671-PDC patient-derived lung adenocarcinoma cell line growth inhibition [RAS]
Settings: for IC50: curve of first compound; for viability, T/C: stronger effect = lower value
From the text: RAS pathway inhibitors in Combinations in Complex Spheroids
A high-throughput screen of multi-cell type tumor spheroids was designed to identify active combinations of RAS pathway inhibitors and targeted small molecules. Complex spheroids include a stromal component modeled by human endothelial cells (HUVEC) and fibroblasts modeled by human mesenchymal stem cells (MSCs). The concentration ranges selected for each drug and investigational agent were based upon clinically achievable concentrations if the clinical Cmax of the agent was known.
Compounds. The drugs and investigational agents: abemaciclib (NSC768073), cobimetinib (NSC768068), divarasib (GDC6063, NSC841802), docetaxel (NSC628503), GDC-1971 (RLY-1971, NSC841576), gemcitabine (NSC613327), inavolisib (NSC800729), ipatasertib (NSC767898), KB-0742 (NSC834161), MRTX-1133 (NSC836407), osimertinib (NSC779217), RMC-4630 (NSC839698), RMC-6236 (NSC851965), RMC-6291 (NSC852671), Ro-3306 (NSC812927), sapanisertib (NSC764658), SN-38 (NSC673596), staurosporine (NSC755774), SY5609 (NSC837396), and tovorafenib (DAY101, NSC766906), were obtained from the National Cancer Institute (NCI) Developmental Therapeutics Program Chemical Repository. The FDA-approved anticancer drug set is available from the NCI Developmental Therapeutics Program. […] The stock solutions were prepared in dimethyl sulfoxide (DMSO, Sigma-Aldrich, St. Louis, MO, cat. D2650) at 800-fold the tested concentration and stored at -70 degrees C prior to their use. All drugs and investigational agents were tested over a range starting from a high concentration at or near the clinical Cmax and decreasing in half-log increments. If the clinical Cmax for an agent had not been determined, the highest concentration tested was 10 microM.
Cell Culture. All cells were maintained in an incubator at 37 degrees C and 5% CO2 with 95% humidity. The PDC lines were cultured according to standard operating procedures established by the NCI PDMR. All PDCs were thawed and cultured in Matrigel-coated flasks prepared with a working solution of 1X Ham's F-12 nutrient mix, without supplementation (Invitrogen, Waltham, MA, cat. 11765054), 100 U/mL penicillin-streptomycin (Invitrogen, cat. 15140122), and 2.5% Matrigel (Corning Inc., Corning, NY, cat. 354248) for the first three passages. The 362531-283-R-J2-PDC and 782815-120-R-J1-PDC lines were cultured in 6C/Colon 1B media, which includes advanced DMEM/F-12 (Thermo Fisher Scientific, cat. 12634028), 10 mM HEPES (Thermo Fisher Scientific, cat. 15630080), 1X GlutaMAX supplement (Thermo Fisher Scientific, cat. 35050061), 0.1 mg/mL primocin (InvivoGen, San Diego, CA, cat. ant-pm-2), 10% defined fetal bovine serum, heat inactivated (HyClone Laboratories Inc., Logan, UT, cat. SH30070.03HI), 50% L-WRN conditioned media (ATCC, cat. CRL-3276), 1.25 mM N-Acetyl-L-cysteine (Sigma-Aldrich, cat. A9165), 10 mM nicotinamide (Sigma-Aldrich, cat. N0636), 1X B-27 supplement (Thermo Fisher Scientific, cat. 17504044), 1X N-2 supplement (Thermo Fisher Scientific, cat. 17502048), 50 ng/mL human EGF (Thermo Fisher Scientific, cat. PHG0311), and 10 microM Y-27632 dihydrochloride (Tocris Bioscience, cat. 1254). The K12877-001-R-J1-PDC line was cultured in 6I media, which includes all 6C/Colon 1B media plus 10 ng/mL human FGF-10 (PeproTech, cat. 100-26), 1 ng/mL human FGF-2 (PeproTech, cat. 100-18B), 1 µM prostaglandin E2 (Tocris Bioscience, cat. 2296), […] hydrocortisone (Sigma-Aldrich, cat. H4001), and […] bovine insulin (Sigma-Aldrich, cat. I6634). The K86415-001-R-J1-PDC line was cultured in 6D media, which includes all 6C/Colon 1B media components minus the L-WRN conditioned media. The 485176-168-R4-J1-PDC was cultured in PANC media, which includes all 6C/Colon 1B media plus 100 ng/mL human FGF-10 (PeproTech, cat. 100-26), 500 nM SB-431542 (Selleckchem, cat. S1067), and 10 nM gastrin (Tocris Bioscience, cat. 3006). […]
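Further: spheroids exposed to compound for seven days before readout.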
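Wherever IC50 is given: luminescence signal used as a proxy for viable cells.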

CC1(C)CCC(Nc2ncc(C(F)(F)F)c(-c3c[nH]c4c(P(C)(C)=O)c(C#N)ccc34)n2)CN1 (configuration not stated) + C#Cc1c(F)ccc2cc(O)cc(-c3ncc4c(N5CC6CCC(C5)N6)nc(OCC56CCCN5CC(F)C6)nc4c3F)c12
IC50 (second compound 0.0316 µM): 4.36 nM | IC50 (second compound 0.1 µM): < 0.949 nM | IC50 (second compound 0.316 µM): < 0.949 nM | IC50 (second compound 1 µM): < 0.949 nM | IC50 (second compound 3.16 µM): < 0.949 nM | IC50 (second compound 10 µM): < 0.949 nM | viability, T/C (second compound 0.0316 µM, first compound 0.000949 µM): 61.2% | viability, T/C (second compound 0.0316 µM, first compound 0.003 µM): 50.8% | viability, T/C (second compound 0.0316 µM, first compound 0.00949 µM): 48.4% | viability, T/C (second compound 0.0316 µM, first compound 0.03 µM): 45.5% | viability, T/C (second compound 0.0316 µM, first compound 0.0949 µM): 43.3% | viability, T/C (second compound 0.0316 µM, first compound 0.3 µM): 46% | viability, T/C (second compound 0.1 µM, first compound 0.000949 µM): 54.5% | viability, T/C (second compound 0.1 µM, first compound 0.003 µM): 45.1% | viability, T/C (second compound 0.1 µM, first compound 0.00949 µM): 42.7% | viability, T/C (second compound 0.1 µM, first compound 0.03 µM): 45.3% | viability, T/C (second compound 0.1 µM, first compound 0.0949 µM): 45.2% | viability, T/C (second compound 0.1 µM, first compound 0.3 µM): 44.4% | viability, T/C (second compound 0.316 µM, first compound 0.000949 µM): 40.9% | viability, T/C (second compound 0.316 µM, first compound 0.003 µM): 34.8% | viability, T/C (second compound 0.316 µM, first compound 0.00949 µM): 36% | viability, T/C (second compound 0.316 µM, first compound 0.03 µM): 32.6% | viability, T/C (second compound 0.316 µM, first compound 0.0949 µM): 34.1% | viability, T/C (second compound 0.316 µM, first compound 0.3 µM): 34.1% | viability, T/C (second compound 1 µM, first compound 0.000949 µM): 22.6% | viability, T/C (second compound 1 µM, first compound 0.003 µM): 21.8% | viability, T/C (second compound 1 µM, first compound 0.00949 µM): 23.2% | viability, T/C (second compound 1 µM, first compound 0.03 µM): 21.7% | viability, T/C (second compound 1 µM, first compound 0.0949 µM): 23% | viability, T/C (second compound 1 µM, first compound 0.3 µM): 25.2% | viability, T/C (second compound 3.16 µM, first compound 0.000949 µM): 15.2% | viability, T/C (second compound 3.16 µM, first compound 0.003 µM): 12.6% | viability, T/C (second compound 3.16 µM, first compound 0.00949 µM): 13.6% | viability, T/C (second compound 3.16 µM, first compound 0.03 µM): 15.4% | viability, T/C (second compound 3.16 µM, first compound 0.0949 µM): 16% | viability, T/C (second compound 3.16 µM, first compound 0.3 µM): 15.3% | viability, T/C (second compound 10 µM, first compound 0.000949 µM): 9.1% | viability, T/C (second compound 10 µM, first compound 0.003 µM): 8.15% | viability, T/C (second compound 10 µM, first compound 0.00949 µM): 8.73% | viability, T/C (second compound 10 µM, first compound 0.03 µM): 8.94% | viability, T/C (second compound 10 µM, first compound 0.0949 µM): 9.91% | viability, T/C (second compound 10 µM, first compound 0.3 µM): 8.26%
